This is an account of results in patent publication US5545647A, “3-phenylpyrrolidine derivatives” (Mitsubishi Chemical Corporation, priority 1994, dated 1996).

As usually defined, the pIC50 is the negative decadic logarithm of the IC50, by convention in mol/L.

pIC50: −log10 of the molar value.

The test system of the first experiment is Phosphodiesterase (PDE) IV. The experiment is described as follows: Action to Phosphodiesterase (PDE) IV Enzyme Activities (3H-cAMP hydrolysis, enzyme from U-937 cells). It counts as biochemical. The settings on record: human histiocytic lymphoma (U-937) cytoplasm fraction enzyme; 0.4 μM 3H-cAMP; pH 8.0; 15 minutes at 30° C.; read-out: PDE IV inhibitory activity IC50. Here is the method: Action to Phosphodiesterase (PDE) IV Enzyme Activities
Enzyme was partialy purified from human histiocytic lymphoma(U-937) cytoplasm fraction by means of the Q-sepharose column according to the method of Nicholson and collaborators [Br. J. Pharmacol., 97, 889 (1989)], and was reacted in a solution of 0.1 mg/ml BSA (bovine serum albumin), 1 mM EDTA (ethylenediaminetetra acetic acid), 5 mM MgCl2 and 50 mM Tris-buffer (pH 8.0) for 15 minutes at 30° C. using 0.4 μM ^3 H-cAMP as substrate according to the method of Hidaka and collaborators [Biochem. Med., 10, 301 (1974)]. ^3 H-5'-AMP generated was separated by means of the cation exchange column, and the enzyme activity was determined by measuring a radioactivity amount.
A test compound was added. After incubation for 15 minutes at 30° C., the substrate was added. Inhibition ratios were derived for respective concentrations assuming that the reaction without the test compound was 100%. By using the probit analysis, the concentration (IC50) showing the inhibition rate of 50% was derived.
For the compound `COc1ccc(C2CCN(C(=O)OC(C)(C)C)C2)cc1OC1CCOC1` (centres unmarked) [compound 8], the pIC50 is 7.72.

For the compound `COc1ccc(C2CCN(C(=O)OCCc3ccccn3)C2)cc1OC1CCCC1` (centres unmarked) [compound 36], the pIC50 was 7.96. Turning to `COc1ccc(C2CCN(C(=O)OCc3cccnc3)C2)cc1OC1CCCC1` (single isomer, unassigned; (-)) [Compound No. 48, (-)-3-(3-cyclopentyloxy-4-methoxyphenyl)-1-(3-pyridylmethoxycarbonyl) pyrrolidine], the pIC50 was 8.96. Same read-out and setting: for `COc1ccc(C2CCN(C(=S)OCc3cccnc3)C2)cc1OC1CCCC1` (centres unmarked) [compound 40] the value was 8.00; for `COc1cc2c(cc1OC)CN(C(=O)N1CCC(c3ccc(OC)c(OC4CCCC4)c3)C1)CC2` (centres unmarked) [compound 32], 7.60. Consider `CCOC(=O)N1CCC(c2ccc(OC)c(OC3CCCC3)c2)C1` (centres unmarked) [Compound No. 4, 3-(3-cyclopentyloxy-4-methoxyphenyl)-1-(ethoxycarbonyl) pyrrolidine], for which the pIC50 was 7.96. On the same count and under the same terms, for `COc1ccc(C2CCN(C(=O)OCc3cccnc3)C2)cc1OC1CCCC1` (racemic) [Compound No. 13, (±)-3-(3-cyclopentyloxy-4-methoxyphenyl)-l-(3pyridylmethoxycarbonyl) pyrrolidine] the value was 8.48.

Take `COc1ccc(C2CCN(C(=O)c3ccccc3)C2)cc1OC1CCCC1` (centres unmarked) [compound 7]: the pIC50 is 7.70.

Take `COc1ccc(C2CCN(C(=O)OCc3cccc[n+]3[O-])C2)cc1OC1CCCC1` (centres unmarked) [compound 26]: the pIC50 was 8.06. On the same count and under the same terms, for `COc1ccc(C2CCN(C(=O)OCc3ccc[n+]([O-])c3)C2)cc1OC1CCCC1` (centres unmarked) [compound 17] the value was 7.64. On the same count and under the same terms, for `COc1ccc(C2CCN(C(=O)OCc3cccnn3)C2)cc1OC1CCCC1` (centres unmarked) [compound 42] the value was 8.10; for `COc1ccc(C2CCN(C(=O)OCc3ccnc(Cl)c3)C2)cc1OC1CCCC1` (centres unmarked) [compound 37], 7.72. The same measure, in the same setting: for `COc1ccc(C2CCN(C(=O)OCc3ccc(Cl)nc3)C2)cc1OC1CCCC1` (centres unmarked) [compound 38] the value was 7.64. With `COc1ccc(C2CCN(C(=O)OCc3ccccc3)C2)cc1OC1CCCC1` (centres unmarked) [compound 3], the pIC50 was 8.22. For the compound `COc1ccc(C2CCN(C(=O)OCc3ccncc3)C2)cc1OC1CCCC1` (centres unmarked) [compound 19], the negative logarithm of the IC50 (pIC50) was 8.42. Regarding `COc1ccc(C2CNC(=O)C2)cc1OC1CCCC1` (centres unmarked) [roliplam, reference compound], the pIC50 is 6.52. Turning to `COc1ccc(C2CCN(C(=O)OCc3ccccn3)C2)cc1OC1CCCC1` (centres unmarked) [compound 24], the negative logarithm of the IC50 (pIC50) was 8.64. On the same count and under the same terms, for `CCCCOC(=O)N1CCC(c2ccc(OC)c(OC3CCCC3)c2)C1` (centres unmarked) [compound 6] the value was 8.22; for `COc1ccc(C2CCN(C(=O)OC(C)(C)C)C2)cc1OC1CCCC1` (centres unmarked) [Compound No. 1], 8.00.

The test system of a further experiment is PDE IV.
Assay: not given
Particulars: Adv. Second Messenger Phosphoprotein Res., 22, 1 (1988); cited from earlier work.
`COc1ccc(C2CNC(=O)C2)cc1OC1CCCC1` (centres unmarked) [roliplam, reference compound]: the “specific inhibition to PDE IV” value is “specific inhibition to PDE IV”.
